The structures appear in SMILES notation. “Also recorded” adds a separate entry of the source. Read-outs that look alike come from different tables or passages of the source. Bounds are passed on as bounds.

The source of these data is article PMC4851402, “Validation of N-myristoyltransferase as Potential Chemotherapeutic Target in Mammal-Dwelling Stages of Trypanosoma cruzi” (PLoS Neglected Tropical Diseases, 2016).

The subject of data set [1] is T. cruzi intracellular amastigote proliferation. The data set is described as follows: In vitro T. cruzi intracellular proliferation assay in infected U2OS cells, high-content imaging. Type of data set: cell-based, Trypanosoma cruzi (Y strain). The conditions noted are these: read-out: T. cruzi proliferation assay EC50. How it is done: DMSO control wells contained 30 μL 6% DMSO. Human […] (U2OS cells) were diluted in DMEM, 10% heat inactivated-fetal bovine serum (HI-FBS) to give a cell density of 2 x 10^5 cells/mL. T. cruzi trypomastigotes were resuspended in DMEM, 10% HI-FBS to a final density of 1.2 x 10^7. Cells and parasites were mixed a ratio of 4 volumes of cells plus 1 volume of parasites. 150 μL of the mixture were dispensed per well. Plates were incubated for 48 h. After the incubation period, media was removed from the wells and 100 μL 4% paraformaldehyde (PFA) were added. After 15 min of incubation at room temperature, PFA was removed and cells and parasites were stained with Draq5 (BioStatus, Leicestershire, UK) at a concentration of 5 μM diluted in PBS. The plates were then read in a bioimager system as described below. Three independent experiments were performed in triplicate wells.
Filter sets appropriate for the excitation and emission spectra of Draq5 were utilized. Images from four fields (2 x 2 montage) were acquired per well with a 20x objective. To perform the host cell segmentation and counting of parasites, the BD AttoVision v1.6.2 Sub Object analysis was used. Draq5 creates a background, staining the host cell and parasite nucleus, but defining the cytoplasm as well, determining this way the amount of parasites within each mammalian cell. The host cell nucleus was excluded by size difference. Raw data was imported into the BD Image Data Explorer (BD Biosciences) to determine the percentage of infected cells containing at least 1, at least 3 or at least 5 intracellular parasites.
(§1) EC50 were determined from three independent experiments.

Data set [2] deals with T. cruzi epimastigotes (Epi). The data set is described as follows: Cytotoxicity assay on epimastigotes (Alamar Blue). In kind it is cell-based, Trypanosoma cruzi (Y strain). The conditions noted are these: after 72 h; for EC50: Trypanosoma cruzi, read-out: Epi forms EC50. The method, then: DDD compounds 1–8 and the reference drug BZ were prepared 6-fold-concentrated in 6% DMSO, to give a final concentration of 1x compound in 1% DMSO. […] DMSO control wells contained 30 μL 6% DMSO, whereas wells for the negative control contained 1% hydrogen peroxide in DMEM. U2OS cells were resuspended in DMEM, 10% HI-FBS, to give a cell density of 2 x 10^5 cells/mL, while ICA forms were resuspended in DMEM, 10% HI-FBS, to a final density of 1 x 10^7 per well. Epi forms were resuspended in LIT medium to a density of 1 x 10^6 parasites per well. Hundred and fifty microliters of the suspension containing either host cells or parasites were added per well. Following 47- and 23-h incubation at 37°C for mammalian cells and ICA, respectively, a mixture of propidium iodide (Invitrogen) and Hoechst dye (Invitrogen) diluted in culture media (1 μg/mL each) was added to the plates, which were then further incubated for 1 h at 37°C. Finally, plates were read in the BD Pathway 855 bioimager system. In the case of Epi, after 68-h incubation at 28°C, 18 μL Alamar Blue (AbD Serotec, Raleigh, NC) were added per well. Following an additional 4-h incubation, the plate was read in a microplate fluorometer (Thermo Scientific) at excitation 560 nm, emission 590 nm. Three independent experiments were performed in triplicate wells. […] EC50 were determined from three independent experiments.
On the technique in general: Resazurin is reduced to fluorescent resorufin, in cell work by metabolically active cells.

For another data set, the system named is U2OS cells. The data set is described as follows: Cytotoxicity (viability) assay on non-infected U2OS cells, high-content imaging. Type of data set: cell-based, human. The conditions noted are these: for EC50: Homo sapiens, read-out: U2OS cells EC50; for Toxicity on U2OS cells: after 48 h of treatment. How it is done: (§2) DMSO control wells contained 30 μL 6% DMSO, whereas wells for the negative control contained 1% hydrogen peroxide in DMEM. U2OS cells were resuspended in DMEM, 10% HI-FBS, to give a cell density of 2 x 10^5 cells/mL, while ICA forms were resuspended in DMEM, 10% HI-FBS, to a final density of 1 x 10^7 per well. Epi forms were resuspended in LIT medium to a density of 1 x 10^6 parasites per well. Hundred and fifty microliters of the suspension containing either host cells or parasites were added per well. Following 47- and 23-h incubation at 37°C for mammalian cells and ICA, respectively, a mixture of propidium iodide (Invitrogen) and Hoechst dye (Invitrogen) diluted in culture media (1 μg/mL each) was added to the plates, which were then further incubated for 1 h at 37°C. […] In the case of Epi, after 68-h incubation at 28°C, 18 μL Alamar Blue (AbD Serotec, Raleigh, NC) were added per well. Following an additional 4-h incubation, the plate was read in a microplate fluorometer (Thermo Scientific) at excitation 560 nm, emission 590 nm. Three independent experiments were performed in triplicate wells.
as §1

In data set [3] the test system is TcNMT. The data set is described as follows: Metabolic labeling with myristic acid, azide and in-gel western blotting (on-target). The conditions noted are these: 10 μM, 12 h, Epi, ICA and TCT. In kind it is cell-based, Trypanosoma cruzi. The method, then: Parasites were incubated with or without 10 μM of the inhibitor 1, 5, or 8 in 1 mL 2% delipidated BSA-DMEM at 37°C for ICA and TCT and at 28°C for Epi. After 6 h, 100 μM myristic acid, azide (from a 50-mM stock in DMSO) were added to the samples, and the same volume of DMSO was added to the negative control. Cells were incubated for another 6 h, for a 12-h treatment with the inhibitors. Next, the parasites were washed three times with PBS and lysed in 1% SDS, Tris-HCl, pH 8.0. “Click” reaction was performed between the myristic acid azide and Biotin Alkyne (Invitrogen) according to the manufacturer instructions using the Click-iT Protein Reaction Buffer Kit (Invitrogen). Duplicate aliquots of lysates were ran in 10% SDS-PAGE followed by fixing (5% acetic acid, 50% isopropanol) for 15 min. Gels were then analyzed by in-gel western blotting using IRDye streptavidin (LI-COR Biosciences, Lincoln, NE) 1:7500 in 5% BSA, 0.05% SDS, 0.2% Tween in PBS, for 1 h at room temperature. They were subsequently treated or not with 0.2 M NaOH in methanol for 1 h at room temperature. Gels were scanned in an ODYSSEY quantitative imagining system (LI-COR Biosciences). They were next stained with Coomassie blue and scanned again to determine total protein levels.
In general terms: In western blotting, separated proteins are transferred to a membrane and probed.

Data set [4] concerns Purified ICAs of T. cruzi. The data set is described as follows: microbe, parasite or virus in culture. In kind it is cell-based, Trypanosoma cruzi (Y strain). The conditions noted are these: for EC50: read-out: Purified ICAs EC50. The method, then:
Intracellular amastigote (ICA) forms were purified as described. Briefly, 5 x 10^6 LLC-MK2 cells were seeded in a 150-cm^2 tissue culture flask (NUNC, Thermo Scientific) and cells were grown for 3–4 days to reach confluency of ~2 x 10^7 cells per flask. The medium was then replaced with fresh complete medium and host cells were infected with 1 x 10^8 TCT (multiplicity of infection (MOI) ≈ 5). After 5 days, the infected monolayers were gently detached by scraping and resuspended in 5 mL phosphate-buffered saline (PBS). The suspension containing the infected cells was next transferred to an M-tube (Miltenyi Biotec Inc., San Diego, CA). This tube bears a special stator and rotor that allows for tissue homogenization. In addition, it has a pre-inserted mesh that retains larger particles, removing them from the homogenized sample. The tube was then placed in the gentleMACS Dissociator (Miltenyi Biotec) for the automated disruption of host cells. The homogenized sample containing the parasites was then passed through a column containing anion exchange preswollen microgranular diethylaminoethyl cellulose (DE52, Whatman, Sigma-Aldrich).
as §2, §1

Data set [5] concerns TcNMT. The data set is described as follows: Western blotting of TcNMT expression in treated parasites. Type of data set: cell-based, Trypanosoma cruzi. The conditions noted are these: 10 μM, 12 h. The method, then: Parasites (1 x 10^7 cells) were incubated with or without 10 μM of the inhibitor (compound 1, 5, or 8) in 1 mL 10% HI-FBS, DMEM at 37°C for ICA and TCT, and at 28°C for Epi for 12 h. Next, parasites were washed three times with PBS and lysed in 1% SDS, Tris-HCl, pH 8.0. Samples were run in 10% SDS-PAGE followed by western blot probed with anti-TcNMT at dilution 1:1000 in 5% milk-PBS overnight. This was followed by incubation with anti-rabbit IgG-HRP conjugated. The membrane was next stripped with boiling stripping buffer (3% SDS, 0.3% β-mercaptoethanol) for 10 min, followed by 4 washes with 0.1% PBS-T. It was then blot again with anti-BiP at dilution 1:500 in 5% milk-PBS overnight, at 4°C, followed by anti-rabbit IgG HRP-conjugated.

Data set [6] concerns Epi, ICA and TCT forms of T. cruzi. The data set is described as follows: [35S]-Methionine labeling (protein translation). Type of data set: cell-based, Trypanosoma cruzi. The conditions noted are these: 10 μM, 12 h. How it is done: Parasites were incubated with or without 10 μM of the inhibitors as described above. After 10 h, cells were starved in methionine deficient media for 1 h. Next, 20 μCi.mL^-1 [^35S]-methionine (Perkin Elmer) were added to the samples for 1 h incubation, for a 12-h treatment with the inhibitors. Next, the parasites were washed three times with PBS and lysed in 1% SDS, Tris-HCl, pH 8.0. Samples were ran in 4–12% gels (Expedeon, San Diego, CA) and transferred to polyvinylidene fluoride (PVDF) membranes (Sigma-Aldrich). Membranes were dried and exposed to Hyperfilm ECL (Amersham, GE Healthcare Lifesciences, Piscataway, NJ). To determine total protein levels, membranes were stained with Ponceau S after exposure.

The next data set has as its system T. brucei. Details: method as in PMID 20360736. The conditions noted are these: T. brucei bloodstream forms; cited from earlier work.
[7] abbreviates: Trypanosoma cruzi, U2OS, 48 h, infected U2OS cells, 48 h at 37°C.
[8] abbreviates: non-infected U2OS cells, 48 h at 37°C.
Setting [9] is: Trypanosoma cruzi, 24 h, purified ICAs, 24 h at 37°C.

Turning to `Cc1c(NS(=O)(=O)c2c(Cl)cc(-c3ccnc(N4CCNCC4)c3)cc2Cl)c(CC(C)C)nn1C` [Compound 1], the EC50 in data set [1] (setting [7]) was 0.18 µM; with U2OS cells (setting [8]), 12.8 µM; in data set [4] (setting [9]), 1.83 µM; in data set [4] (purified ICAs, 24 h at 37°C), 1.8 µM. Further, the “Effect on Epi parasite viability” value in data set [2] is reported as “did not have a significant effect”. Also, the “Toxicity on U2OS cells” value with U2OS cells is “toxicity only at 50 μM”. Further, the “Protein N-myristoylation bands (myristic acid azide labeling)” value (from here on “Protein N-myristoylation bands”) in the data set with TcNMT [3] is given as “decreased intensity or complete loss of most of the bands”. Besides, in the data set on TcNMT [5], the “TcNMT expression in Epi” value was “overexpression of TcNMT”. The “Incorporation of [35S]-methionine into proteins” value (“Incorporation” for short) in data set [6] is reported as “no effect”.
Turning to `Cc1nn(C)c(Cl)c1NS(=O)(=O)c1c(Cl)cc(-c2ccnc(N3CCNCC3)c2)cc1Cl` [Compound 2], the EC50 is 1.14 µM in data set [1] (setting [7]); 1.1 µM in data set [1] (infected U2OS cells, 48 h at 37°C); above 50 µM with U2OS cells (setting [8]); above 50 µM in data set [4] (setting [9]). Further, in data set [4] (purified ICA), the “Trypanocidal activity against purified ICA forms” value is “no significant trypanocidal activity; also recorded: not trypanocidal”. Besides, in the data set on T. brucei, the “Efficacy in mouse model of human African trypanosomiasis” value is reported as “curative”.
Regarding `Cc1nn(C)c(C)c1NS(=O)(=O)c1c(Cl)cc(CCCN2CCN(C)CC2)cc1Cl` [Compound 3], the EC50 was 10.3 µM in data set [1] (Trypanosoma cruzi, U2OS, 48 h); above 50 µM in the data set with U2OS cells (U2OS, 48 h); above 50 µM in data set [4] (Trypanosoma cruzi, 24 h).
On to `Cc1c(NS(=O)(=O)c2ccc(CCCC3CCN(C)CC3)cc2)c(CC(C)C)nn1C` [Compound 4], for which the EC50 in data set [1] (setting [7]) was 0.54 µM; with U2OS cells (setting [8]), above 50 µM; in data set [4] (setting [9]), above 50 µM.
`Cc1nn(C)c(C)c1N(C(F)F)S(=O)(=O)c1c(Cl)cc(CCCC2CCN(C)CC2)cc1Cl` [Compound 5]: the EC50 in data set [1] (setting [7]) came out at 0.26 µM; in data set [2], 9.7 µM; in the data set with U2OS cells (setting [8]), 11.4 µM; in data set [4] (setting [9]), 0.06 µM. Besides, in the data set with U2OS cells, the “Toxicity on U2OS cells” value was “toxicity only at 50 μM”. For the same compound, the “Protein N-myristoylation bands” value in the data set on TcNMT [3] is on record as “decreased intensity or complete loss of most of the bands”. Also, in the data set with TcNMT [5], the “TcNMT expression in Epi” value was “overexpression of TcNMT”. Further, the “Incorporation” value in data set [6] is reported as “no effect”.
Turning to `Cc1c(NS(=O)(=O)c2ccc(-c3cccc(CN(C)C)c3)cc2)c(CC(C)C)nn1C` [Compound 6], the EC50 in data set [1] (setting [7]) is 0.99 µM; with U2OS cells (setting [8]) it was above 50 µM; in data set [4] (setting [9]), above 50 µM.
In the case of `Cc1nn(C)c(C)c1N(CC(F)(F)F)S(=O)(=O)c1c(Cl)cc(CCCC2CCN(C)CC2)cc1Cl` [Compound 7], the EC50 is 1.01 µM in data set [1] (setting [7]), 13.9 µM in the data set with U2OS cells (setting [8]) and 11.1 µM in data set [4] (setting [9]).
Consider `Cc1nn(C)c(C)c1N(C(F)F)S(=O)(=O)c1c(Cl)cc(CCCCC2CCN(C)CC2)cc1Cl` [Compound 8], for which the EC50 in data set [1] (setting [7]) came to 0.35 µM; in data set [2], 2.1 µM; with U2OS cells (setting [8]), 11.9 µM; in data set [4] (setting [9]), 0.02 µM. Moreover, the “Toxicity on U2OS cells” value in the data set on U2OS cells was “toxicity only at 50 μM”. Moreover, the “Protein N-myristoylation bands” value in the data set with TcNMT [3] was “decreased intensity or complete loss of most of the bands”. Further, the “TcNMT expression in Epi” value with TcNMT [5] is recorded as “overexpression of TcNMT”. In addition, the “Incorporation” value in data set [6] is “no effect”.
